Measured values: patent US20260102346A1, “LIPID COMPOSITION” (priority 2022, published 2026)

Assays:
[1] = tested on: luciferase mRNA expression in livers and injection sites (muscles); assay: In vivo luciferase expression liver/muscle of LNP and LPP with different cationic lipids (Example 10); parameters: species or system Balb/c mice; details: 10 μg luciferase mRNA i.m., 6 hours after injection; for Liver/muscle (%, LNP): LNP preparation of the cationic lipid; for Liver/muscle (%, LPP): LPP preparation of the cationic lipid
Excerpt: Test of in vivo luciferase signal expression: female Balb/c mice (Beijing Vital River Laboratory Animal Technology Co., Ltd.) of 6-8 weeks of age were divided into 18 groups (M5-LNP, M5-LPP, SM102-LNP, SM102-LPP, ALC0315-LNP, ALC0315LPP, SW-II-121-LNP, SW-II-121-LPP, SW-II-122-LNP, SW-II-122-LPP, SW-II-134-3-LNP, SW-II-134-3-LPP, SW-II-138-2-LNP, SW-II-138-2-LPP, SW-II-139-2-LNP, SW-II-139-2-LPP, SW-II-140-2-LNP, and SW-II-140-2-LPP groups, with 3 mice per group). M5-LNP, M5-LPP, SM102-LNP, SM102-LPP, ALC0315-LNP, ALC0315LPP, SW-II-121-LNP, SW-II-121-LPP, SW-II-122-LNP, SW-II-122-LPP, SW-II-134-3-LNP, SW-II-134-3-LPP, SW-II-138-2-LNP, SW-II-138-2-LPP, SW-II-139-2-LNP, SW-II-139-2-LPP, SW-II-140-2-LNP, and SW-II-140-2-LPP solutions containing 10 μg of luciferase mRNA were administered by intramuscular injection (hind limbs of mice), respectively. 6 Hours after the administration, mice were injected intraperitoneally with 30 mg of a […] substrate. The bioluminescence was measured in a Xenogen IVIS-200 imaging system 15 minutes after substrate injection to evaluate the expression of the luciferase mRNA in the livers and injection sites (muscles) of the mice.

[2] = tested on: luciferase mRNA expression in livers and injection sites (muscles); assay: In vivo luciferase expression of LNP with M5, MC3, SW-II-121 (Example 11.1); parameters: species or system Balb/c mice; details: LNP preparation, DSPC, PEG-DMG, 50:10:38.5:1.5, 10 μg luciferase mRNA, 6 hours after intramuscular administration
Method: Test of in vivo luciferase signal expression: female Balb/c mice (Beijing Vital River Laboratory Animal Technology Co., Ltd.) of 6-8 weeks of age were divided into 3 groups (M5-LNP, MC3-LNP, and SW-II-121-LNP, with 3 mice per group). M5-LNP, MC3-LNP, and SW-II-121-LNP solutions containing 10 μg of luciferase mRNA were administered by intramuscular injection (hind limbs of mice), respectively. 6 Hours after the administration, mice were injected intraperitoneally with 30 mg of a […] substrate. The bioluminescence was measured in a Xenogen IVIS-200 imaging system 15 minutes after substrate injection to evaluate the expression of the luciferase mRNA in the livers and injection sites (muscles) of the mice.

CCCCCCCCC(CCCCCC)C(=O)OCCCCCCN(CCCCO)CCCCCCOC(=O)C(CCCCCC)CCCCCCCC (stereo not shown) [ALC-0315, reference compound]
Liver/muscle (%, LNP) [1]: 199.8 ± 35.8% | Liver/muscle (%, LPP) [1]: 173.2 ± 103.9%

CCCCCCCCCOC(=O)CCCCCCCN(CCO)CCCCCCCC(=O)OC(CCCCCCCC)CCCCCCCC [Compound M5]
Liver/muscle (%, LNP) [1]: 10.1 ± 7.5% | Liver/muscle (%, LPP) [1]: 2.8 ± 0.3%

CCCCCCCCCCCOC(=O)CCCCCN(CCO)CCCCCCCC(=O)OC(CCCCCCCC)CCCCCCCC [SM-102, reference compound]
Liver/muscle (%, LNP) [1]: 6.2 ± 3.3% | Liver/muscle (%, LPP) [1]: 2.7 ± 0.6%

CCCCCCCCC(CCCCCCCC)OC(=O)CCCCCCCN(CCO)CCCCCCCC(=O)OCCc1ccc(CCCCCCC)cc1 [SW-II-121]
in vivo expression (luciferase, injection site and liver) [2]: significantly superior in vivo expression 6 hours after intramuscular administration to M5-LNP and MC3-LNP | Liver/muscle (%, LNP) [1]: 77.8 ± 48.9% | Liver/muscle (%, LPP) [1]: 52.2 ± 38.9%

CCCCCCCCC(CCCCCCCC)OC(=O)CCCCCCCN(CCO)CCCCCCCC(=O)OCc1cccc(CCCCCC)c1 [SW-II-122]
Liver/muscle (%, LNP) [1]: 11.9 ± 1.2% | Liver/muscle (%, LPP) [1]: 2.8 ± 0.8%

CCCCCCCCCOC(=O)CCCCCCCN(CCO)CCCCCCCC(=O)OCCc1ccc(CCCC)c(CCCC)c1 [SW-II-134-3]
Liver/muscle (%, LNP) [1]: 8.2 ± 2.9% | Liver/muscle (%, LPP) [1]: 1.5 ± 0.8%

CCCCCCCCC(CCCCCCCC)OC(=O)CCCCCCCN(CCO)CCCCCCCC(=O)OCCCCc1ccc(CCCCC)cc1 [SW-II-138-2]
Liver/muscle (%, LNP) [1]: 8.2 ± 5.7% | Liver/muscle (%, LPP) [1]: 3.5 ± 0.2%

CCCCCCCCC(CCCCCCCC)OC(=O)CCCCCCCN(CCO)CCCCCCCC(=O)OCCc1cccc(CCCC)c1 [SW-II-139-2]
Liver/muscle (%, LNP) [1]: 75.1 ± 16.1% | Liver/muscle (%, LPP) [1]: 2.0 ± 1.0%

CCCCCCCCC(CCCCCCCC)OC(=O)CCCCCCCN(CCO)CCCCCCCC(=O)OCCc1ccccc1CCCC [SW-II-140-2]
Liver/muscle (%, LNP) [1]: 7.4 ± 4.0% | Liver/muscle (%, LPP) [1]: 3.3 ± 1.5%
